“Also recorded” adds a separate entry of the source.
Key:
[1] = test system: tyrosine kinase inhibitor (TKI)-resistant mastocytoma model; assay: TKI-resistant mastocytoma model in vivo
[2] = Toxicology and safety pharmacology studies; format: in vivo; details: at active doses
[3] = Phase 1 dose escalation in advanced systemic mastocytosis (NCT02561988); format: in vivo; details: patients with advanced systemic mastocytosis, Phase 1 study, oral
Source text: (§1) This is a Phase 1, open-label, study designed to evaluate the safety, tolerability, PK, PD, and preliminary antineoplastic activity of Compound (I), administered orally, in adult patients with advanced systemic mastocytosis (AdvSM) and relapsed or refractory myeloid malignancies.
(§2) The study consists of 2 parts: dose-escalation (Part 1) and expansion (Part 2). Approximately 25 patients were in Part 1 and approximately 55 patients were in Part 2.
Patients with AdvSM or a relapsed or refractory myeloid malignancy were enrolled in the dose escalation part of the study. A 3+3 dose-escalation design using cohorts of 3 patients were employed.
The first cohort of patients received Compound (I) at a starting dose of 30 mg once daily (QD). Dose escalation proceeded at increments up to 100% until ≥1 patient treated at a given dose level has a ≥Grade 2 non-hematologic AE or a Grade 4 hematologic AE and the AE (non-hematologic or hematologic) was not clearly attributable to a cause other than Compound (I) or the dose exceeds the highest dose determined to be safe in the ongoing Compound (I) first-in-human (FIH) study in GIST, BLU-285-1101.
Three patients were enrolled initially in each cohort and an additional 3 patients (for a total of 6) were enrolled when the cohort requires expansion due to dose-limiting toxicity (DLT). […]

KIT D816V = KIT D816V (Homo sapiens, UniProt P10721, D816V); assay: Activity against KIT D816V in vitro; format: biochemical
eosinophils = assay: Measurement of absolute eosinophils in Phase 1 clinical trial patients (routine blood test at C1D15); format: in vivo, human; details: adult patients with AdvSM, oral Compound (I) 30 mg to 400 mg QD, C1D15 (after 2 weeks), baseline absolute eosinophil count >0.5, FIGS. 1-4
Method: The dose range of Compound (I) is between 30 mg and 400 mg. The patients with baseline absolute eosinophil count of >0.5.
The patients with baseline absolute eosinophil count of >0.5.
The dose range of Compound (I) is between 200 mg and 300 mg. The patients with baseline absolute eosinophil count of >0.5.
as §1, §2
A treatment cycle is 28 days in duration. Patients presented to the study center on C1D1 for the first dose of study drug and serial PK sampling, PD sample collection, vital sign measurement, electrocardiogram (ECG) monitoring, patient general impression of symptom severity (PGIS) and European Organization for Research and Treatment of Cancer Core Quality of Life Questionnaire (EORTC QLQ-C30), safety monitoring and adverse event (AE) recording.
Eosinophils in patients were measured at C1D15 (cycle 1, day 15) via a routine blood test, see, e.g., LaGow B et al., eds. PDR Lab Advisor. A Comprehensive Point-of-Care Guide for Over 600 Lab Tests. 1st ed. […]

Chain of KIT D816V (P10721 26-976 D816V): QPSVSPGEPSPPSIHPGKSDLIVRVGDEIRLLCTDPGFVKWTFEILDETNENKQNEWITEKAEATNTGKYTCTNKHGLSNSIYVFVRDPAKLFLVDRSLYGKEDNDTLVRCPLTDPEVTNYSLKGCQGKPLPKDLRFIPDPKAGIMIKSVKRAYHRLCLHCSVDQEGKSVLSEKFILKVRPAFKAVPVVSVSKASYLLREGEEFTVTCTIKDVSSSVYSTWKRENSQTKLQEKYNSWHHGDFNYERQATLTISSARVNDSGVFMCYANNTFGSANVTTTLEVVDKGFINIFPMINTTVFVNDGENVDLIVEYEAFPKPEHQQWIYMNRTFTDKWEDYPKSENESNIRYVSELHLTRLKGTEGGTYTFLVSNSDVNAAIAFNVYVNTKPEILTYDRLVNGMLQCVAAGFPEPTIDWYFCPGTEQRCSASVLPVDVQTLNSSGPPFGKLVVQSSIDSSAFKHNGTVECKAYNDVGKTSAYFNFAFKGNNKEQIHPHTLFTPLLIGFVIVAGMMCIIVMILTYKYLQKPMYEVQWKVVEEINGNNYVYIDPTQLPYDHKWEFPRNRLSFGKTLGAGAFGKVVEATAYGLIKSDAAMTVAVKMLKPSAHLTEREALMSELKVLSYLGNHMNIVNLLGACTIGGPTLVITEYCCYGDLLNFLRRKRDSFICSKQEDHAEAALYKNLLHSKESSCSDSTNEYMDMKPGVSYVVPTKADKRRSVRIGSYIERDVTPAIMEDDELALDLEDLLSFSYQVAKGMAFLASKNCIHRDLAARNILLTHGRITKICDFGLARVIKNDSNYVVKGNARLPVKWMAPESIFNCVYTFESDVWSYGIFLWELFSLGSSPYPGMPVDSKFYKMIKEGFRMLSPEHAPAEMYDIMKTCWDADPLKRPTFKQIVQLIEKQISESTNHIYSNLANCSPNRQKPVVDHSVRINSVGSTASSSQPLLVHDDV

recommended Phase 2 dose (RP2D) [3]: 300 mg once a day (QD)
activity against KIT D816V in vitro (KIT D816V): potent and selective activity
SMILES: Cn1cc(-c2cc3c(N4CCN(c5ncc([C@@](C)(N)c6ccc(F)cc6)cn5)CC4)ncnn3c2)cn1 [Compound (I), (S)-1-(4-fluorophenyl)-1-(2-(4-(6-(1-methyl-1H-pyrazol-4-yl)pyrrolo[2,1-f][1,2,4]triazin-4-yl)piperazin-yl)pyrimidin-5-yl)ethan-1-amine]
growth inhibition in TKI-resistant mastocytoma model [1]: robust growth inhibition
tolerability [2]: tolerability at active doses
absolute eosinophil changes from baseline levels (eosinophils): significantly decreases number of absolute eosinophils; also recorded: effectively reduces eosinophil levels
